We go through 10 molecules from ChEMBL document CHEMBL4680348, “1,2,4-Thiadiazole acyclic nucleoside phosphonates as inhibitors of cysteine dependent enzymes cathepsin K and GSK-3β” (Bioorg Med Chem, 2021).

Data set [1] has as its system HeLa S3. Briefly: Cytotoxicity against human HeLa S3 cells assessed as cell viability at 10 uM incubated for 72 hrs by CellTiter-Glo luminescence based assay. Format: functional. The note with it: read-out: Activity.
For data set [2], the system named is HeLa S3. Briefly: Cytotoxicity against human HeLa S3 cells assessed as cell viability at 100 uM incubated for 72 hrs by CellTiter-Glo luminescence based assay. The note with it: read-out: Activity. Format: functional. (Cellular ATP, detected with luciferase, serves as a proxy for viable cell number.)
Data set [3] can be described thus: Cytotoxicity against human NHDF cells assessed as cell viability at 10 uM incubated for 72 hrs by CellTiter-Glo luminescence based assay. The settings on record: read-out: Activity.
The target of data set [4] is T1, Cathepsin K (Homo sapiens) (UniProt P43235).
T1 sequence (whole entry): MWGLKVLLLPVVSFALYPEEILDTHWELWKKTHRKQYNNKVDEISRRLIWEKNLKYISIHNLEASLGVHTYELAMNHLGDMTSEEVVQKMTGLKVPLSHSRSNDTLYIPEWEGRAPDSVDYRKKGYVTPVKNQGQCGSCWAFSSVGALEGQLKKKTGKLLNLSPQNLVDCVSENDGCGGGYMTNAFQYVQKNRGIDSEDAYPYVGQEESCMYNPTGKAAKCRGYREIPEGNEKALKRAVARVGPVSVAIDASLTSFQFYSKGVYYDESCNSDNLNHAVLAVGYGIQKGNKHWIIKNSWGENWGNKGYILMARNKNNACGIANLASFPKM
Put plainly: Inhibition of recombinant human Cathepsin K expressed in Pichia pastoris X-33 assessed as residual activity at 10 uM using Z-Gly-Pro-Arg-AMC as substrate preincubated for 10 mins followed by substrate addition measured after 30 mins by fluorescence based microplate reader assay. The note with it: time 40.0 min.

The test system of data set [5] is SH-SY5Y. Put plainly: Cytotoxicity against human SH-SY5Y cells assessed as cell viability at 100 uM incubated for 72 hrs by CellTiter-Glo luminescence based assay. Format: functional. The note with it: read-out: Activity.
A short description of data set [6]: Cytotoxicity against human NHDF cells assessed as cell viability at 100 uM incubated for 72 hrs by CellTiter-Glo luminescence based assay. The note with it: read-out: Activity.
For data set [7], the target named is T2, Cathepsin K (Homo sapiens, UniProt P43235).
T2 sequence (P43235 whole entry): T1 sequence (whole entry)
Briefly: Inhibition of recombinant human Cathepsin K expressed in Pichia pastoris X-33 using Z-Gly-Pro-Arg-AMC as substrate preincubated for 10 mins followed by substrate addition measured after 30 mins by fluorescence based microplate reader assay.

Data set [8] relates to SH-SY5Y. Briefly: Cytotoxicity against human SH-SY5Y cells assessed as cell viability at 10 uM incubated for 72 hrs by CellTiter-Glo luminescence based assay. It counts as functional. The note with it: read-out: Activity.
Data set [9] relates to HL-60. Put plainly: Cytotoxicity against human HL-60 cells assessed as cell viability at 100 uM incubated for 72 hrs by CellTiter-Glo luminescence based assay. The note with it: read-out: Activity. Format: functional.
The test system of data set [10] is CCRF-CEM. Briefly: Cytotoxicity against human CCRF-CEM cells assessed as cell viability at 10 uM incubated for 72 hrs by CellTiter-Glo luminescence based assay. It counts as functional. The settings on record: read-out: Activity.
In data set [11] the target is Glycogen synthase kinase-3 beta (Homo sapiens, UniProt P49841). Put plainly: Inhibition of human recombinant GSK3beta using GSK3 peptide as substrate preincubated for 15 mins followed by ATP addition and measured after 90 mins by ADP-Glo kinase assay. In general terms: ADP-Glo turns the ADP formed in a reaction into a luminescent signal.
Data set [12] deals with HepG2. Briefly: Cytotoxicity against human HepG2 cells assessed as cell viability at 100 uM incubated for 72 hrs by CellTiter-Glo luminescence based assay. The note with it: read-out: Activity. It counts as functional.
Data set [13] deals with CCRF-CEM. Put plainly: Cytotoxicity against human CCRF-CEM cells assessed as cell viability at 100 uM incubated for 72 hrs by CellTiter-Glo luminescence based assay. It counts as functional. The note with it: read-out: Activity.
In data set [14] the test system is HepG2. Put plainly: Cytotoxicity against human HepG2 cells assessed as cell viability at 10 uM incubated for 72 hrs by CellTiter-Glo luminescence based assay. The note with it: read-out: Activity. It counts as functional.
The test system of data set [15] is HL-60. Briefly: Cytotoxicity against human HL-60 cells assessed as cell viability at 10 uM incubated for 72 hrs by CellTiter-Glo luminescence based assay. The settings on record: read-out: Activity. It counts as functional.

Chain of Glycogen synthase kinase-3 beta (P49841 whole entry): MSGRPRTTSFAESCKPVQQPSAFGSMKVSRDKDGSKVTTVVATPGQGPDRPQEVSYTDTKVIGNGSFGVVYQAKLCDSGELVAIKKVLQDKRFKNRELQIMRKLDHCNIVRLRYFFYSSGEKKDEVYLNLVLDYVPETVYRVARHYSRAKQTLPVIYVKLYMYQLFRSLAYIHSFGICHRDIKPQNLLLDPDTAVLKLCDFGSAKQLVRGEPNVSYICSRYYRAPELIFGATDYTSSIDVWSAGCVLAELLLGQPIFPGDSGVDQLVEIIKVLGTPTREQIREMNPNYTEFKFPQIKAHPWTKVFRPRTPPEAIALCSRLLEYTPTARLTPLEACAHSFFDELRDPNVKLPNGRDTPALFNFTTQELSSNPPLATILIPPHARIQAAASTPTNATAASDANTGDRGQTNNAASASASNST

As for `O=C(/N=c1\s[nH]c(=O)n1C[C@H](O)COC(c1ccccc1)(c1ccccc1)c1ccccc1)c1ccccc1`, the viability at 10 µM in data set [1] is 45%; in data set [8], 96%; in [10], 81%; in data set [14], 91%; in data set [15], 93%. Further, the viability at 100 µM was 3% in data set [2]; 34% in data set [5]; 9% in data set [9]; 37% in [12]; 5% in data set [13]. In [3], the viability at 72 h, 10 µM worked out at 98%. Also, the Activity in data set [4] turned out to be 34.2%. Moreover, in [6], the viability at 72 h, 100 µM was 79%. The IC50 in data set [7] was 14.9 µM; in [11], above 10 µM.

As to `CN(C)/C=N/c1nc(=O)n(C[C@H](O)COC(c2ccccc2)(c2ccccc2)c2ccccc2)s1`, the viability at 10 µM in data set [1] turned out to be 80%; in [8], 67%; in data set [10], 15%; in data set [14], 87%; in data set [15], 64%. For the same molecule, the viability at 100 µM in data set [2] worked out at 1%; in [5], 3%; in [9] it was 2%; in data set [12], 1%; in data set [13] it was 1%. Further, the viability at 72 h, 10 µM in data set [3] is 77%. Moreover, the Activity in [4] came to 28.3%. For the same molecule, the viability at 72 h, 100 µM in data set [6] stood at 1%. The figures for the IC50 in [7] and in [11] were 10.1 µM and above 10 µM, respectively.

With `CC(C)OP(=O)(CO[C@H](CO)Cn1sc(NC(=O)OCC2c3ccccc3-c3ccccc32)nc1=O)OC(C)C`, the viability at 10 µM in data set [1] worked out at 99%; in [8], 102%; in data set [10] it was 82%; in data set [14] it was 102%; in [15] it was 103%. In addition, the viability at 100 µM was found to be 100% in [2]; 85% in [5]; 110% in data set [9]; 92% in [12]; 82% in data set [13]. Besides, in [3], the viability at 72 h, 10 µM is 98%. Further, in data set [4], the Activity worked out at 34.1%. Moreover, in [6], the viability at 72 h, 100 µM worked out at 100%. Besides, the IC50 in data set [7] was 9.25 µM; in data set [11], above 10 µM.

In the case of `Nc1nc(=O)[nH]s1`, the viability at 10 µM in [1] stood at 100%; in data set [8] it was 99%; in [10], 120%; in data set [14], 87%; in [15] it was 98%. Besides, the viability at 100 µM was 87% in data set [2]; 56% in data set [5]; 95% in data set [9]; 54% in data set [12]; 4% in [13]. The viability at 72 h, 10 µM in [3] came to 101%. In addition, in data set [4], the Activity was 16.9%. In addition, the viability at 72 h, 100 µM in [6] is 49%. Besides, the IC50 in data set [7] was 6.34 µM; in data set [11], above 10 µM.

`CN(C)/C=N/c1nc(OC[C@H](O)COC(c2ccccc2)(c2ccccc2)c2ccccc2)ns1`: the viability at 10 µM in data set [1] is 91%; in data set [8] it was 99%; in [10] it was 101%; in data set [14] it was 92%; in data set [15], 86%. The viability at 100 µM in data set [2] worked out at 2%; in data set [5] it was 2%; in [9] it was 1%; in data set [12], 1%; in data set [13], 2%. In addition, the viability at 72 h, 10 µM in data set [3] was 97%. For the same molecule, in data set [4], the Activity was 5.3%. Also, in [6], the viability at 72 h, 100 µM turned out to be 1%. In addition, the IC50 in data set [7] is 2.63 µM; in [11], above 10 µM.

`O=C(Nc1nc(=O)n(C[C@@H](CO)OCP(=O)(O)O)s1)c1ccccc1`: the viability at 10 µM stood at 97% in [1]; 101% in [8]; 72% in [10]; 101% in [14]; 103% in [15]. The viability at 100 µM in data set [2] is 101%; in data set [5], 103%; in data set [9], 106%; in data set [12], 100%; in data set [13], 61%. Further, the viability at 72 h, 10 µM in data set [3] came to 105%. In addition, the Activity in [4] turned out to be 92.3%. Also, the viability at 72 h, 100 µM in data set [6] is 98%. Moreover, the half-maximal inhibitory concentration (IC50) in [11] is above 10 µM.

On to `O=C(Nc1nc(=O)n(CCOCP(=O)(O)O)s1)c1ccccc1`, for which the viability at 10 µM in [1] worked out at 101%; in [8], 104%; in data set [10] it was 98%; in data set [14], 100%; in [15], 102%. Further, the viability at 100 µM turned out to be 101% in data set [2]; 105% in data set [5]; 113% in data set [9]; 100% in data set [12]; 100% in data set [13]. For the same molecule, the viability at 72 h, 10 µM in [3] was determined as 103%. The Activity in data set [4] was determined as 90.3%. The viability at 72 h, 100 µM in data set [6] came to 102%. Moreover, the half-inhibitory concentration (IC50) in data set [11] is above 10 µM.

Consider `CCOC(=O)Nc1nc(=O)n(CCOCP(=O)(OC(C)C)OC(C)C)s1`, for which the viability at 10 µM was 100% in [1]; 105% in [8]; 92% in data set [10]; 104% in [14]; 102% in data set [15]. In addition, the viability at 100 µM in data set [2] worked out at 101%; in [5], 104%; in [9], 111%; in data set [12], 100%; in data set [13] it was 98%. Also, the viability at 72 h, 10 µM in data set [3] was determined as 101%. Also, the Activity in [4] turned out to be 86.8%. In [6], the viability at 72 h, 100 µM is 98%. Besides, the 50% inhibitory concentration (IC50) in [11] was above 10 µM.

On to `CCOC(=O)Nc1nc(=O)n(CCOCP(=O)(O)O)s1`, for which the viability at 10 µM in data set [1] was found to be 94%; in data set [8], 103%; in [10] it was 74%; in data set [14], 98%; in data set [15], 96%. The viability at 100 µM in data set [2] amounted to 96%; in [5], 105%; in [9], 100%; in data set [12] it was 97%; in data set [13] it was 77%. Further, the viability at 72 h, 10 µM in data set [3] is 94%. In [4], the Activity was 39.1%. For the same molecule, the viability at 72 h, 100 µM in data set [6] was 97%. Also, the IC50 in data set [7] was 10.1 µM; in data set [11] it was above 10 µM.

Take `Nc1nc(OCCOCP(=O)(O)O)ns1`: the viability at 10 µM was 101% in [1]; 101% in data set [8]; 113% in data set [10]; 97% in data set [14]; 103% in [15]. Moreover, the viability at 100 µM in data set [2] is 102%; in data set [5], 99%; in data set [9], 100%; in [12], 93%; in data set [13] it was 112%. Moreover, in data set [3], the viability at 72 h, 10 µM was determined as 105%. Besides, the Activity in data set [4] worked out at 90%. Moreover, the viability at 72 h, 100 µM in data set [6] was determined as 96%. For the same molecule, the IC50 in data set [11] was above 10 µM.

One may read the IC50 as the concentration needed to halve the response being measured.
